{"source": "patent EP0467365A2", "about": "“Use of a 5-hydroxytryptamine-3(5-HT3) receptor antagonist for the preparation of a pharmaceutical composition for treating urinary incontinence” (E.R. SQUIBB & SONS, INC., priority 1990, dated 1992)", "format_in_all_cases": "cell-based", "key": {"rabbit bladder strips": {"test_system": "rabbit bladder strips", "test": "5-HT-induced contraction of rabbit bladder (detrusor) strips, organ bath tension recording", "conditions": "for inhibition of the 5-HT contractions: atropine 10^-7M, α,β-methylene ATP 10^-6M; for antagonism of the 5-HT-induced contraction / pA2: 30 minutes exposure; for antagonism of the 5-HT-induced contraction: BRL 43694 5 x 10^-11 to 2 x 10^-10M, ICS 205930 5 x 10^-12 to 1 x 10^-10M, MDL 72222 5 x 10^-10 to 5 x 10^-9M; for pA2: antagonism of 5-HT-induced contraction, rabbit detrusor strips, Schild plot, mean ± s.e.mean; for atropine and α,β-methylene ATP-resistant component of 5-HT-induced contraction: bladder strips, in presence of atropine and α,β-methylene ATP; for effect on the contractile response to 5-HT: ketanserine 10^-7 to 10^-6M, methysergide and metitepine 10^-8 to 10^-7M, anterior detrusor of female rabbits"}, "urethra": {"test_system": "urethra", "test": "5-HT-induced contraction of rabbit urethra strips, organ bath tension recording", "conditions": "30-second application, 10^-6 to 10^-3M"}, "rabbit bladder": {"test_system": "rabbit bladder", "test": "Contractile response of rabbit bladder strips to electrical field stimulation of intrinsic nerves", "conditions": "for effect on the response to field stimulation: α,β-methylene ATP dose-dependent, all frequencies"}}, "note": "“Also recorded” adds a separate entry of the source. Where a name gives a salt, the structure may show the parent alone. Read-outs that look alike come from different tables or passages of the source.", "data": [{"compound": "NCCc1c[nH]c2ccc(O)cc12", "note": "[5-HT, 5-Hydroxytryptamine creatinine sulphate complex]", "values": [{"measurement": "contraction in the rabbit bladder", "setting": "rabbit bladder strips; 30-second application, 10^-8 to 10^-3M", "value": "dose-dependent contraction"}, {"measurement": "contraction in the urethra", "setting": "urethra", "value": "dose-dependent contraction"}]}, {"compound": "CN1[C@@H]2CC[C@H]1CC(OC(=O)C(CO)c1ccccc1)C2.CN1[C@@H]2CC[C@H]1CC(OC(=O)C(CO)c1ccccc1)C2.O=S(=O)(O)O", "note": "(stereo partly drawn) [Atropine, Atropine sulphate]", "values": [{"measurement": "inhibition of the 5-HT contractions", "setting": "rabbit bladder strips", "value": "partially inhibited"}, {"measurement": "inhibition of the response to field stimulation (maximum)", "setting": "rabbit bladder; 20 minute pretreatment, 10^-8 to 10^-6M, maximum at high frequencies", "value": 40, "unit": "%"}, {"measurement": "control response to field stimulation still persisting", "setting": "rabbit bladder; atropine 10^-8 to 10^-6M, 5-50 Hz, posterior detrusor of male rabbits", "value": "approximately 60%"}, {"measurement": "effect on the response to field stimulation", "setting": "rabbit bladder; atropine 10^-8 to 10^-6M", "value": "only partially inhibited"}]}, {"compound": "CN1C2CCCC1CC(NC(=O)c1nn(C)c3ccccc13)C2", "note": "(stereo not drawn) [BRL 43694, [endo]N-(9-methyl-9-azabicyclo-[3,3,1]-non-3-yl)-1-methyl-1H-indazole-3-carboxamide hydrochloride]", "values": [{"measurement": "antagonism of the 5-HT-induced contraction", "setting": "rabbit bladder strips; hydrochloride", "value": "strongly and competitively antagonized; also recorded: dose-dependent inhibition"}, {"measurement": "antagonism of the 5-HT-induced contraction", "setting": "rabbit bladder strips; listed as BRL 43695, hydrochloride", "value": "effective at blocking"}, {"measurement": "pA2", "setting": "rabbit bladder strips", "value": "10.5 ± 0.01"}, {"measurement": "atropine and α,β-methylene ATP-resistant component of 5-HT-induced contraction", "setting": "rabbit bladder strips", "value": "not abolished"}]}, {"compound": "CN1[C@@H]2CC[C@H]1C[C@@H](OC(=O)c1c[nH]c3ccccc13)C2", "note": "[ICS 205930, 3a-tropanyl-1 H-indole-3-carboxylic acid ester]", "values": [{"measurement": "antagonism of the 5-HT-induced contraction", "setting": "rabbit bladder strips", "value": "strongly and competitively antagonized; also recorded: effective at blocking"}, {"measurement": "antagonism of the 5-HT-induced contraction", "setting": "rabbit bladder strips; listed as ICS 205-930", "value": "most potent antagonistic effect"}, {"measurement": "pA2", "setting": "rabbit bladder strips", "value": "12.5 ± 0.36"}, {"measurement": "atropine and α,β-methylene ATP-resistant component of 5-HT-induced contraction", "setting": "rabbit bladder strips", "value": "not abolished"}]}, {"compound": "CN1[C@@H]2CC[C@H]1C[C@@H](OC(=O)c1cc(Cl)cc(Cl)c1)C2", "note": "[MDL 72222, laH,3a,5aH-tropan-3-yl-3,5-dichlorobenzoate]", "values": [{"measurement": "antagonism of the 5-HT-induced contraction", "setting": "rabbit bladder strips", "value": "strongly and competitively antagonized; also recorded: dose-dependent inhibition; also recorded: effective at blocking"}, {"measurement": "pA2", "setting": "rabbit bladder strips", "value": "9.3 ± 0.04"}, {"measurement": "atropine and α,β-methylene ATP-resistant component of 5-HT-induced contraction", "setting": "rabbit bladder strips", "value": "not abolished"}, {"measurement": "effect on the contraction to field stimulation", "setting": "rabbit bladder; 10^-7M", "value": "no effect"}]}, {"compound": "NC1=N[C@H](O)[C@H]2[C@H]3O[C@]4(O)O[C@@H]([C@@H](O)[C@@]2(N1)[C@@H]4O)[C@]3(O)CO", "note": "[TTX, Tetrodotoxin]", "values": [{"measurement": "effect on the 5-HT-induced contraction of the rabbit bladder", "setting": "rabbit bladder strips", "value": "did not affect; also recorded: no effect"}, {"measurement": "abolition of the responses to field stimulation", "setting": "rabbit bladder", "value": "complete; also recorded: completely blocks"}]}, {"compound": "C[N+](C)(C)CCCCCC[N+](C)(C)C", "note": "[hexamethonium, Hexamethonium bromide]", "values": [{"measurement": "effect on the 5-HT-induced contraction of the rabbit bladder", "setting": "rabbit bladder strips", "value": "did not affect; also recorded: not blocked"}]}, {"compound": "CC[C@@H](CO)NC(=O)[C@@H]1C=C2c3cccc4c3c(cn4C)C[C@H]2N(C)C1", "note": "[methysergide, Methysergide bimaleate]", "values": [{"measurement": "atropine and α,β-methylene ATP-resistant component of 5-HT-induced contraction", "setting": "rabbit bladder strips", "value": "not abolished"}, {"measurement": "effect on the contractile response to 5-HT", "setting": "rabbit bladder strips", "value": "no significant effect"}]}, {"compound": "Cc1ccc(N(CC2=NCCN2)c2cccc(O)c2)cc1", "note": "[phentolamine, Phentolamine mesylate]", "values": [{"measurement": "effect on the 5-HT-induced contraction of the rabbit bladder", "setting": "rabbit bladder strips", "value": "did not affect; also recorded: not blocked"}]}, {"compound": "COc1cc2nc(N3CCN(C(=O)c4ccco4)CC3)nc(N)c2cc1OC", "note": "[prazosin, Prazosin hydrochloride]", "values": [{"measurement": "effect on the 5-HT-induced contraction of the rabbit bladder", "setting": "rabbit bladder strips; hydrochloride", "value": "did not affect; also recorded: not blocked"}]}, {"compound": "Nc1ncnc2c1ncn2C1OC(COP(=O)(O)CP(=O)(O)OP(=O)(O)O)C(O)C1O", "note": "(stereo not drawn) [α,β-methylene ATP, α,β-Methyleneadenosine 5'-Triphosphate]", "values": [{"measurement": "inhibition of the 5-HT contractions", "setting": "rabbit bladder strips", "value": "partially inhibited"}, {"measurement": "inhibition of the response to field stimulation", "setting": "rabbit bladder; 10^-6M", "value": "about 35%"}, {"measurement": "effect on the response to field stimulation", "setting": "rabbit bladder; atropine 10^-8 to 10^-6M", "value": "dose-dependent inhibition"}]}, {"compound": "Ketanserine tartrate", "values": [{"measurement": "atropine and α,β-methylene ATP-resistant component of 5-HT-induced contraction", "setting": "rabbit bladder strips", "value": "not abolished"}, {"measurement": "effect on the contractile response to 5-HT", "setting": "rabbit bladder strips", "value": "no effect"}, {"measurement": "effect on the contractile response to 5-HT", "setting": "rabbit bladder strips; listed as ketanserine", "value": "no significant effect"}]}, {"compound": "Metitepine monomethanesulfonate", "values": [{"measurement": "atropine and α,β-methylene ATP-resistant component of 5-HT-induced contraction", "setting": "rabbit bladder strips", "value": "not abolished"}, {"measurement": "effect on the contractile response to 5-HT", "setting": "rabbit bladder strips", "value": "no significant effect"}]}]}
